Measured values reported in patent publication US10220034B2, “Hepatitis B viral assembly effectors” (Indiana University Research and Technology Corp., priority 2013, dated 2019).

Columns and labels:
AD38 cells = assay: Activity of test compounds on viral production from AD38 cells (qPCR viral load); type: cell-based, HBV; set-up: key: (+) depicting meets criteria for significant activity; (++) depicting exceeds criteria; details: 5 days, supernatant qPCR
Experimental: AD38 cells grown in a 175 cm flash with Growth Medium (DMEM/F12 (1:1) (cat#SH30023.01, Hyclone, 1× Pen/step (cat#: 30-002-CL, Mediatech, Inc), 10% FBS (cat#: 101, Tissue Culture Biologics), 250 μg/mL G418 (cat#: 30-234-CR, Mediatech, Inc), 1 μg/mL Tetracycline (cat#: T3325, Teknova)) were detached with 0.25% trypsin. Tetracycline-free treatment medium (15 mL DMEM/F12 (1:1) (cat#SH30023.01, Hyclone, 1× Pen/step (cat#: 30-002-CL, Mediatech, Inc), with 2% FBS, Tet-system approved (cat#: 631106, Clontech) were then added to mix and spun at 1300 rpm for 5 min. Pelleted cells were then re-suspended/washed with 50 mL of 1×PBS 2 times and 10 mL treatment medium one time. AD38 cells were then re-suspended with 10 mL of treatment medium and counted. Wells of a collagen coated 96-well NUNC microtiter plate were seeded at 50,000/well in 180 μL of treatment medium, and 20 μL of either 10% DMSO (Control) or a 10× solution of test compound in 10% DMSO in treatment media was added for as final compound concentration 1, 3, or 10 μM (1.0% final [DMSO]) and plates were incubated for 5 days at 37° C.
Subsequently viral load production was assayed by quantitative PCR of the core sequence. Briefly, 5 μL of clarified supernatant was added to a PCR reaction mixture that contained forward primers HBV-f 5′-[…]-3′, Reverse primers HBV-r 5′-[…]-3′ and Fluorescent TaqMan™ Probes HBV-probe 5′-FAM/[…]/ZEN/[…]/31ABkFQ-3′ in Quanta Biosciences PerfeCTa® qPCR Toughmix®, and was subsequently on an Applied Biosystems VIIA7 in a final volume of 20 μL. The PCR mixture was incubated at 45° C. for 5 minutes, then 95° C. for 10 min, followed by 40 cycles of 10 seconds at 95° C. and 20 seconds at 60° C. Viral load was quantitated against known standards by using ViiA™ 7 Software. Viral load in the supernatant from wells with treated cells were compared against viral load in supernatant from DMSO control wells (≥3 per plate). In Table 4, concentrations of test compound causing reductions in viral load greater than at least 3 standard deviations from the DMSO controls across all plates were considered active, with (+) depicting meets criteria for significant activity, and (++) depicting exceeds criteria.

HBV Cp = assay: Capsid assembly assay (fluorescence quenching); details: 10 μM compound, control reactions with no drug show 25±5% assembly

Compound	reduction in viral load vs DMSO controls (AD38 cells; test concentration 1 μM)	reduction in viral load vs DMSO controls (AD38 cells; test concentration 3 μM)	reduction in viral load vs DMSO controls (AD38 cells; test concentration 10 μM)	% Capsid formation at 24 h (10 μM) (HBV Cp)
COc1ccc(S(=O)(=O)N2CCN(c3nc(C)cc(Nc4ccc(C(F)(F)F)cc4)n3)CC2)cc1 [compound 40]	++	++	++	91%
COc1ccc(S(=O)(=O)N2CCN(c3nc(C)cc(Nc4ccc(C#N)cc4)n3)CC2)cc1 [compound 42]			++	69%
